Source: ChEMBL document CHEMBL1201862, “PubChem BioAssay data set” (2004)
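These data come from cells grown in 96-well plates and exposed to compound for 48 hours at five concentrations. The concentration for 50% growth inhibition is given as GI50.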 Calls of active or inactive are those of the source. Cut-off read from the data, not from the text of the source: active = GI50 up to about 1.1 µM and inactive = higher.

Experiments:
Assay in all cases: DTP human tumour cell line panel, 48 h
[1] = tested on: U-251
[2] = tested on: A498
[3] = tested on: HCC 2998
[4] = tested on: UACC-62
[5] = tested on: PC-3
[6] = tested on: M14
[7] = tested on: A549
[8] = tested on: COLO 205
[9] = tested on: EKVX
[10] = tested on: RPMI-8226
[11] = tested on: UACC-257
[12] = tested on: OVCAR-5
[13] = tested on: NCI-H226
[14] = tested on: MDA-N
[15] = tested on: OVCAR-8
[16] = tested on: HL-60
[17] = tested on: SNB-19
[18] = tested on: NCI-H23
[19] = tested on: SK-MEL-28
[20] = tested on: HOP-62

| Structure (SMILES) | GI50 [1] | GI50 [2] | GI50 [3] | GI50 [4] | GI50 [5] | GI50 [6] | GI50 [7] | GI50 [8] | GI50 [9] | GI50 [10] | GI50 [11] | GI50 [12] | GI50 [13] | GI50 [14] | GI50 [15] | GI50 [16] | GI50 [17] | GI50 [18] | GI50 [19] | GI50 [20] |
| --- | --- | --- | --- | --- | --- | --- | --- | --- | --- | --- | --- | --- | --- | --- | --- | --- | --- | --- | --- | --- |
| [N-]=[N+]=NC1C(O)C(CO)OC1n1ccc(N)nc1=O (configuration not stated) | 195 µM (inactive) | 91.8 µM (inactive) | 46.7 µM (inactive) | 147 µM (inactive) | 182 µM (inactive) | 26.1 µM (inactive) | 219 µM (inactive) | 160 µM (inactive) | 429 µM (inactive) | 223 µM (inactive) | 369 µM (inactive) | 245 µM (inactive) | > 625 µM (inactive) | 93.1 µM (inactive) | 55.5 µM (inactive) | 3.83 µM (inactive) | 18.2 µM (inactive) | 29.9 µM (inactive) | 416 µM (inactive) | 104 µM (inactive) |
| Cc1c2ncccc2c(C)c2c1[nH]c1ccc(O)cc12 | 2.4 µM (inactive) | 13.3 µM (inactive) | 6.3 µM (inactive) | 10.2 µM (inactive) | 2.76 µM (inactive) | 4.89 µM (inactive) | 2.56 µM (inactive) | 10.4 µM (inactive) | 1.4 µM (inactive) | 2 µM (inactive) | 11.5 µM (inactive) | 11.3 µM (inactive) | 6.68 µM (inactive) | 4.93 µM (inactive) | 4.35 µM (inactive) | 2.32 µM (inactive) | 6.61 µM (inactive) | 6.58 µM (inactive) | 13.5 µM (inactive) | 1.86 µM (inactive) |
| C[C@H]1[C@H]2[C@H](C[C@@]3(C)C4=CC[C@H]5C(C)(C)[C@@H](OC6OCC(O)C(O)C6O)CC[C@@]56C[C@@]46CC[C@]23C)O[C@@]2(O)[C@@H]1OC(C)(C)[C@H]2O (some centres not stated) | 1.69 µM (inactive) | 1.89 µM (inactive) | 0.681 µM (active) | 1.61 µM (inactive) | 1.07 µM (active) | 3.83 µM (inactive) | 1.4 µM (inactive) | 2.67 µM (inactive) | 1.12 µM (inactive) | 1.15 µM (inactive) | 1.6 µM (inactive) | 4.75 µM (inactive) | 2.44 µM (inactive) | 2.28 µM (inactive) | 0.879 µM (active) | 6.47 µM (inactive) | 2.49 µM (inactive) | 1.09 µM (active) | 2.48 µM (inactive) | 1.78 µM (inactive) |
| COC(=O)C1(Cc2ccccc2C)Cc2ccc(C)cc2C1=O (configuration not stated) | 39 µM (inactive) | 31.3 µM (inactive) | 48 µM (inactive) | 40.6 µM (inactive) | 25.7 µM (inactive) | 37.2 µM (inactive) | 33.2 µM (inactive) | 19.5 µM (inactive) | 41.4 µM (inactive) | 17 µM (inactive) | 29.4 µM (inactive) | 89.7 µM (inactive) | 34.2 µM (inactive) | 29.9 µM (inactive) | 47.9 µM (inactive) | 15.6 µM (inactive) | 64.6 µM (inactive) | 26.4 µM (inactive) | 79.8 µM (inactive) | 56.4 µM (inactive) |
| N#Cc1c(C#N)c(-c2ccco2)n(-c2ccccc2)c1N | 35.5 µM (inactive) | > 100 µM (inactive) | > 100 µM (inactive) | > 100 µM (inactive) | > 100 µM (inactive) | > 100 µM (inactive) | 59.2 µM (inactive) | > 100 µM (inactive) | 45 µM (inactive) | > 100 µM (inactive) | > 100 µM (inactive) | > 100 µM (inactive) | 29.5 µM (inactive) | > 100 µM (inactive) | 22.6 µM (inactive) | > 100 µM (inactive) | 39.2 µM (inactive) | > 100 µM (inactive) |  | > 100 µM (inactive) |
| O=C(N/N=C(COc1ccccc1)\N=C\c1cccnc1)c1ccncc1 | > 100 µM (inactive) | > 100 µM (inactive) | > 100 µM (inactive) | > 100 µM (inactive) | > 100 µM (inactive) | > 100 µM (inactive) | > 100 µM (inactive) | > 100 µM (inactive) | > 100 µM (inactive) | > 100 µM (inactive) | > 100 µM (inactive) | > 100 µM (inactive) | > 100 µM (inactive) | > 100 µM (inactive) | > 100 µM (inactive) | > 100 µM (inactive) | > 100 µM (inactive) | > 100 µM (inactive) | > 100 µM (inactive) | 59.6 µM (inactive) |
| Cc1c2c(c(C)c3c[n+](C)ccc13)Oc1ccccc1O2 | 1.21 µM (inactive) | 28.6 µM (inactive) | 6.56 µM (inactive) | 12.7 µM (inactive) | 16.3 µM (inactive) | 18.2 µM (inactive) | 1.84 µM (inactive) | 6.34 µM (inactive) | 9.44 µM (inactive) | 1.88 µM (inactive) | 6.87 µM (inactive) | 18.2 µM (inactive) | 5.66 µM (inactive) | 18.6 µM (inactive) | 6.05 µM (inactive) | 13.3 µM (inactive) | 1.74 µM (inactive) | 6.9 µM (inactive) | 13.7 µM (inactive) | 8.89 µM (inactive) |
| C=CCN1C(=O)/C(=C/c2cccs2)N=C1SC/C=C/C | 37.7 µM (inactive) | 27 µM (inactive) | 48.3 µM (inactive) | 32.4 µM (inactive) | 35.6 µM (inactive) | 69.5 µM (inactive) | 40.7 µM (inactive) | 31.6 µM (inactive) | 33.6 µM (inactive) | 16.9 µM (inactive) | 40.3 µM (inactive) | 65.6 µM (inactive) | > 100 µM (inactive) | 24.7 µM (inactive) | 37.6 µM (inactive) | 21.3 µM (inactive) | 80.9 µM (inactive) | 44.7 µM (inactive) | 54.1 µM (inactive) | > 100 µM (inactive) |
| COC(=O)C1=CON2C3CC4CC(C3)CC(C4)C12C (configuration not stated) | > 100 µM (inactive) | > 100 µM (inactive) | > 100 µM (inactive) | > 100 µM (inactive) | > 100 µM (inactive) | > 100 µM (inactive) | > 100 µM (inactive) | > 100 µM (inactive) | > 100 µM (inactive) | > 100 µM (inactive) | > 100 µM (inactive) | > 100 µM (inactive) | > 100 µM (inactive) | > 100 µM (inactive) | > 100 µM (inactive) | > 100 µM (inactive) | > 100 µM (inactive) | > 100 µM (inactive) | > 100 µM (inactive) | > 100 µM (inactive) |
| CN(C)Cc1cc(C(=O)/C=C/c2ccc([N+](=O)[O-])cc2)cc(CN(C)C)c1O | 3.18 µM (inactive) | 11 µM (inactive) | 17.4 µM (inactive) | 13.9 µM (inactive) | 17 µM (inactive) | 9.23 µM (inactive) | 22.7 µM (inactive) | 1.99 µM (inactive) | 12.8 µM (inactive) | 2.43 µM (inactive) | 14.1 µM (inactive) | 16.6 µM (inactive) | 3.9 µM (inactive) | 11.7 µM (inactive) | 25 µM (inactive) | 2.07 µM (inactive) | 83.4 µM (inactive) | 18.3 µM (inactive) |  | 3.72 µM (inactive) |
| Cc1nc2ccccc2c(=O)n1NC(=O)Cc1ccccc1 | > 100 µM (inactive) | > 100 µM (inactive) | > 100 µM (inactive) | 43.5 µM (inactive) | > 100 µM (inactive) | > 100 µM (inactive) | > 100 µM (inactive) | > 100 µM (inactive) | > 100 µM (inactive) | > 100 µM (inactive) | > 100 µM (inactive) | > 100 µM (inactive) | > 100 µM (inactive) | > 100 µM (inactive) | > 100 µM (inactive) | > 100 µM (inactive) | > 100 µM (inactive) | > 100 µM (inactive) | > 100 µM (inactive) | > 100 µM (inactive) |
| C=C1C(=O)O[C@@H]2C[C@@H](C)[C@@H]3[C@@H](OC4OC(COC(C)=O)C(O)C(O)C4O)CC(=O)[C@@]3(C)C[C@H]12 (some centres not stated) | 7.19 µM (inactive) | 15.5 µM (inactive) | 1.75 µM (inactive) | 1.55 µM (inactive) | 10.3 µM (inactive) | 1.43 µM (inactive) | 8.67 µM (inactive) | 0.703 µM (active) | 1.87 µM (inactive) | 1.39 µM (inactive) | 1.68 µM (inactive) | 3.54 µM (inactive) | 11 µM (inactive) | 1.66 µM (inactive) | 1.36 µM (inactive) | 0.211 µM (active) | 20.2 µM (inactive) | 12.5 µM (inactive) | 2.15 µM (inactive) | 17.3 µM (inactive) |
| COc1ccc2c(c1)/C(=C\c1c(Cl)[nH]c3cc(C)c(OC)cc13)C(=O)N2 | 0.653 µM (active) | 0.83 µM (active) | 1.64 µM (inactive) | 0.434 µM (active) | 0.807 µM (active) | 0.698 µM (active) | 1.19 µM (inactive) | 1.03 µM (active) | 2.1 µM (inactive) | 0.942 µM (active) | 2.63 µM (inactive) | 2.55 µM (inactive) | 6.04 µM (inactive) | 0.23 µM (active) | 1.96 µM (inactive) | 0.435 µM (active) | 1.39 µM (inactive) | 0.593 µM (active) | 10.6 µM (inactive) | 4.44 µM (inactive) |
| CSc1c(C#N)c(O)n(-c2ccc(Cl)cc2)c(=O)c1C#N | > 100 µM (inactive) | 45.2 µM (inactive) | > 100 µM (inactive) | 44.6 µM (inactive) | > 100 µM (inactive) | > 100 µM (inactive) | 80.4 µM (inactive) | > 100 µM (inactive) | > 100 µM (inactive) | 39.5 µM (inactive) | > 100 µM (inactive) | > 100 µM (inactive) | 48.1 µM (inactive) | > 100 µM (inactive) | > 100 µM (inactive) | 28.1 µM (inactive) | > 100 µM (inactive) | 91.2 µM (inactive) | > 100 µM (inactive) |  |
